Columns and labels:
[1] = system: COLO-680N (Esophageal Squamous Cell Carcinoma); assay: Bliss excess, mean over the matrix (fraction); higher = more synergy
Method in brief: (§1)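 Bliss excess equals the observed combination effect minus the expected value EA + EB − EA·EB, where EA and EB are the effects of each agent alone. Combination Emax is the second-highest inhibition within the matrix. Inhibition was scaled from CellTiter-Glo 2.0 luminescence, with 0 set by vehicle wells and 1 by blank wells, after 72 hours of two-drug dosing of cells plated in 1536-well plates.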

[2] = system: HEC-1 (Endometrial Carcinoma); assay: as above
Method in brief: as §1

[3] = system: NCI-H23 (Lung Adenocarcinoma); assay: as above
Method in brief: as §1

[4] = system: 23132-87 (Gastric Carcinoma); assay: combination Emax (second highest fraction inhibited in the dose matrix, 72 h); higher = more inhibition; extreme values may be limits of the assay
Method in brief: as §1

[5] = system: A2058 (Melanoma); assay: as above
Method in brief: as §1

[6] = system: HCT-15 (Colorectal Carcinoma); assay: as above
Method in brief: as §1

[7] = system: HSC-39 (Gastric Carcinoma); assay: as above
Method in brief: as §1

[8] = system: L-1236 (Hodgkin's Lymphoma); assay: as above
Method in brief: as §1

[9] = system: LN-229 (Glioblastoma); assay: as above
Method in brief: as §1

[10] = system: LXF-289 (Lung Adenocarcinoma); assay: as above
Method in brief: as §1

[11] = system: MKN45 (Gastric Carcinoma); assay: as above
Method in brief: as §1

[12] = system: NCI-H446 (Small Cell Lung Carcinoma); assay: as above
Method in brief: as §1

[13] = system: OVMIU (Ovarian Carcinoma); assay: as above
Method in brief: as §1

[14] = system: PANC-03-27 (Pancreatic Carcinoma); assay: as above
Method in brief: as §1

[15] = system: REH (B-Lymphoblastic Leukemia); assay: as above
Method in brief: as §1

[16] = system: RERF-GC-1B (Gastric Carcinoma); assay: as above
Method in brief: as §1

[17] = system: RERF-LC-Sq1 (Squamous Cell Lung Carcinoma); assay: as above
Method in brief: as §1

[18] = system: SHP-77 (Small Cell Lung Carcinoma); assay: as above
Method in brief: as §1

[19] = system: SK-PN-DW (Other Solid Carcinomas); assay: as above
Method in brief: as §1

[20] = system: VAL (B-Cell Non-Hodgkin's Lymphoma); assay: as above
Method in brief: as §1

| SMILES | Bliss excess [1] | Bliss excess [2] | Bliss excess [3] | combination Emax [4] | combination Emax [5] | combination Emax [6] | combination Emax [7] | combination Emax [8] | combination Emax [9] | combination Emax [10] | combination Emax [11] | combination Emax [12] | combination Emax [13] | combination Emax [14] | combination Emax [15] | combination Emax [16] | combination Emax [17] | combination Emax [18] | combination Emax [19] | combination Emax [20] |
| --- | --- | --- | --- | --- | --- | --- | --- | --- | --- | --- | --- | --- | --- | --- | --- | --- | --- | --- | --- | --- |
| CCN(CCO)CCCOc1ccc2c(Nc3cc(CC(=O)Nc4cccc(F)c4)[nH]n3)ncnc2c1 [AZD2811] + C[C@@H]1COCCN1C2=NC(=NC(=C2)C3(CC3)[S@](=N)(=O)C)C4=C5C=CNC5=NC=C4 [AZD6738] (first compound max 1 µM, 7x7, partner max 10 µM) | -0.0737 | -0.0175 | -0.0308 | 0.811 | 0.246 | 0.805 | 1 | 0.595 | 0.562 | 0.516 | 0.732 | 0.869 | 0.457 | 0.837 | 0.787 | 0.439 | 0.791 | 0.496 | 0.947 | 0.877 |
| CCN(CCO)CCCOc1ccc2c(Nc3cc(CC(=O)Nc4cccc(F)c4)[nH]n3)ncnc2c1 [AZD2811] + O=C(c1cc(Cc2n[nH]c(=O)c3ccccc23)ccc1F)N1CCN(C(=O)C2CC2)CC1 [Olaparib] (first compound max 1 µM, 7x7, partner max 10 µM) | -0.0439 | -0.0059 | 0.0076 | 0.246 | 0.218 | 0.12 | 0.985 | 0.158 | 0.167 | 0.555 | 0.28 | 0.81 | 0.295 | 0.379 | 0.487 | 0.316 | 0.219 | 0.185 | 0.689 | 0.831 |
| CN(CCO)CC[C@H](CSc1ccccc1)Nc1ccc(S(=O)(=O)NC(=O)c2ccc(N3CCC([C@@H](O)c4ccccc4-c4ccc(Cl)cc4)CC3)cc2)cc1S(=O)(=O)C(F)(F)F [AZD4320] + C=CCn1c(=O)c2cnc(Nc3ccc(N4CCN(C)CC4)cc3)nc2n1-c1cccc(C(C)(C)O)n1 [AZD1775] (first compound max 1 µM, partner max 1 µM) | 0.0065 | 0.0194 | 0.0364 | 0.846 | 0.355 | 0.456 | 0.958 | 1 | 0.428 | 0.638 | 0.826 | 0.963 | 0.976 | 0.985 | 1 | 0.962 | 0.683 | 0.65 | 0.898 | 1 |

From the supplement of paper PMC11061612
